Source: PMC11387443, “Determination of bisphosphonate properties in terms of bioavailability, bone affinity, and cytotoxicity” (Pharmacological Reports, 2024)
“Also recorded” adds a separate entry of the source.

Columns and labels:
[1] = Sorption of bisphosphonates on hydroxyapatite in SBF; type: physicochemical; details: 0.7 mM, 30 mg HA; for affinity for HA (sorption), comparison in words: 10 mL SBF, 1, 2 and 48 h
Procedure: The first step was to investigate the effect of concentration on the RSD sorption on HA. The sorption capacity was examined for 4 concentrations (0.2, 0.5, 0.7 and 1 mM). 30 mg (+ /− 0.1 mg) of HA was weighed into polypropylene tubes. Subsequently, 10 mL of Simulated Body Fluid (SBF) (Table 2) containing BPs was poured into the tubes and placed in a shaker for 1 h, 2 h, and 48 h. Sorption of BP compounds on HA was measured using a UV–VIS spectrophotometer after 5 min of centrifugation (speed 4000 rpm). The compound concentrations were measured by Multiskan152 Sky Microplate Spectrophotometer (Thermo Fisher Scientific, Waltham, MA, USA). Next, for one concentration (0.7 mM), sorption studies of all BPs were conducted in the same manner as indicated above for RSD. The measurements were conducted in the range of 220–400 nm. The quantitative assessment was performed based on the calibration curve method at the absorbance maximum for each BP (absorption properties of the tested compounds are summarized in Table 3).

[2] = Parallel artificial membrane permeability assay (PAMPA); type: in vitro ADME; details: 175 μM in PBS pH 7.4, 5 h; for PAMPA permeability, comparison in words: room temperature
Procedure: A parallel artificial membrane permeability assay (PAMPA) (Corning® Gentest™ Pre-coated PAMPA Plate System Gentest, USA) was prepared according to the recommended protocol. 96-well PAMPA plate was heated to room temperature for at least 30 min. Compound solutions were prepared in buffer (175 μM in PBS, pH 7.4). 300 μL of the BP solution was added to each donor plate well, and 200 μL of buffer (PBS, pH 7.4) was added to each acceptor plate. The filter plate (acceptor plate) was then placed on the receiver plate (donor plane) and the plate assembly was incubated at room temperature for 5 h. The compound amounts were measured by Multiskan152 SkyMicroplate Spectrophotometer (Thermo Fisher Scientific, Waltham, USA). The permeability of the BPs was calculated using the following formula (Eq. 1)1 Pe=-In[1-CA(t)/Cequilibrium]/A∗(1/VD+1/VA)∗t where Pe is the permeability (cm s^−1), Cequilibrium is [CD(t) × VD + CA(t) × VA]/(VD + VA), CD(t) indicates the compound concentration in donor well at time t (mM), CA(t) indicates the compound concentration in acceptor well at time t (mM), VD is the donor well volume (0.3 mL), VA is the acceptor well volume (0.2 mL), t is the incubation time (18000 s), and A is the effective filter area (0.3 cm^2).

[3] = tested on: Lactobacillus paracasei PCM 3039; assay: Relative metabolic activity (AlamarBlue Cell Viability Assay); type: cell-based; details: 0.2 mg mL^−1 BP, relative to control group set at 100%
Procedure: (§1) Lactobacillus paracasei PCM 3039 used in the experiments was purchased from the Polish Collection of Microorganisms (Wroclaw, Poland). The liquid cultures were composed of the minimal medium (10% solution of MRS Broth in Dulbecco’s Phosphate Buffered Saline (DPBS)), the inoculum, and a BP stock solution in water (initial concentration of BPs in each culture was 0.2 mg mL^−1). The bacterial inoculum was prepared from the broth cultures incubated overnight at 37 °C and washed twice with a sterile medium. The initial cell concentration in each culture was adjusted to 1–10^8 cfu mL^−1. The reference cultures without the addition of BPs (denoted as Ctrl) and the abiotic control samples with the addition of pure minimal medium instead of bacterial inoculum were carried out. All samples were incubated at 36 °C for 24 h with shaking (150 rpm). The effect of BPs on the properties of bacterial cells was also evaluated. The experiments performed include (i) modifications of the bacterial cell membrane permeability—the measurements were based on the Crystal Violet uptake by the cells, (ii) modifications of the bacterial cell wall hydrophobicity, based on the procedure described previously. Relative metabolic activity of cells treated with the compounds in question measured with the colorimetric test AlamarBlue® Cell Viability Assay.

[4] = design: method as in PMID 34277124; details: cited from earlier work
[5] = tested on: Lactobacillus paracasei PCM 3039; assay: Bacterial cell wall hydrophobicity (Congo Red binding); type: cell-based; details: 0.2 mg mL^−1 BP, 24 h; Ctrl 39.7 ± 8.0%
Procedure: as §1

[6] = tested on: Lactobacillus paracasei PCM 3039; assay: Bacterial cell membrane permeability (Crystal Violet uptake); type: cell-based; details: 0.2 mg mL^−1 BP, 24 h; for Crystal Violet uptake (cell membrane permeability): Ctrl 33.4 ± 8.0%
Procedure: as §1

[7] = design: method as in PMID 18056045; details: cited from earlier work
[8] = design: method as in PMID 26542347; details: in vitro artificial intestinal membrane; cited from earlier work
Caco-2 cell monolayer = tested on: Caco-2 cell monolayer; design: method as in PMID 26542347; details: cited from earlier work
[9] = tested on: Lactobacillus paracasei PCM 3039; assay: Growth curve of L. paracasei (OD600); type: cell-based; details: 0.2 mg mL^−1 BP, 24 h
Procedure: Lactobacillus paracasei PCM 3039 used in the experiments was purchased from the Polish Collection of Microorganisms (Wroclaw, Poland). The liquid cultures were composed of the minimal medium (10% solution of MRS Broth in Dulbecco’s Phosphate Buffered Saline (DPBS)), the inoculum, and a BP stock solution in water (initial concentration of BPs in each culture was 0.2 mg mL^−1). The bacterial inoculum was prepared from the broth cultures incubated overnight at 37 °C and washed twice with a sterile medium. The initial cell concentration in each culture was adjusted to 1–10^8 cfu mL^−1. The reference cultures without the addition of BPs (denoted as Ctrl) and the abiotic control samples with the addition of pure minimal medium instead of bacterial inoculum were carried out. All samples were incubated at 36 °C for 24 h with shaking (150 rpm). The growth of cells treated with BPs as well as control cells was monitored by measuring the optical density at the wavelength of 600 nm (OD600) as described by. The growth curve measurements were performed with a microplate reader Multiskan 152 Sky (Thermo Fisher Scientific, Waltham, MA, USA). 200 μL of the prepared bacterial cultures were transferred to the 96-well clear bottom sterile microplates wells. The plates were maintained at 37 °C with pulse shaking. The OD600 of each well was read every 10 min for 24 h.

[10] = design: method as in PMID 32387834; details: oral; cited from earlier work

affinity for HA (sorption), comparison in words [1]	Congo Red Binding (cell wall hydrophobicity) [5]	change in membrane permeability in comparison with RSD [6]	Crystal Violet uptake (cell membrane permeability) [6]	Compound	AlamarBlue Reduction (relative metabolic activity) [3]	further results
stronger affinity for HA than RSD	82.1 ± 1.7%			O=P(O)(O)C(Nc1ccc(Cl)cn1)P(=O)(O)O [BP8, (5-chloro-2-pyridinyl)amino-methylene-1,1-bisphosphonic acid]		drug concentration in the acceptor plate relative to RSD [2]: over twice as high as RSD; PAMPA permeability, comparison in words [2]: higher than twice as much as BP9 permeability; also recorded: highest permeability among all analyzed BPs
highest sorption	35.2 ± 6.1%	significant decrease	30.9 ± 6.4%	O=P(O)(O)C(Nc1cccc(O)n1)P(=O)(O)O [BP11, (6-hydroksy-2-pyridinyl)amino-methylene-1,1-bisphosphonic acid]	60.4 ± 3.4%	PAMPA permeability, comparison in words [2]: highest permeability among all analyzed BPs
	86.4 ± 1.7%		60.6 ± 8.7%	O=P(O)(O)C(Nc1cccnc1Cl)P(=O)(O)O [BP10]		
slightly higher affinity for HA than RSD	45.0 ± 5.8%	significant decrease	30.6 ± 6.0%	O=P(O)(O)C(Nc1ccc(Br)cn1)P(=O)(O)O [BP7, (5-bromo-2-pyridinyl)amino-methylene-1,1-bisphosphonic acid]		drug concentration in the acceptor plate relative to RSD [2]: over twice as high as RSD
	85.0 ± 2.4%		61.9 ± 5.7%	O=P(O)(O)C(Nc1cccc(Cl)n1)P(=O)(O)O [BP9, (6-chloro-2-pyridinyl)amino-methylene-1,1-bisphosphonic acid]	35.9 ± 16.7%	

Further lines, the molecule ahead of its results:

Compound	affinity for HA (sorption), comparison in words [1]	Congo Red Binding (cell wall hydrophobicity) [5]	change in membrane permeability in comparison with RSD [6]	Crystal Violet uptake (cell membrane permeability) [6]	AlamarBlue Reduction (relative metabolic activity) [3]	further results
Cc1cccnc1NC(P(=O)(O)O)P(=O)(O)O [BP2, (3-methyl-2-pyridinyl)aminomethylene-1,1-bisphosphonic acid]	lower affinity				approximately 154.0%	drug concentration in the acceptor plate relative to RSD [2]: over twice as high as RSD; PAMPA permeability, comparison in words [2]: higher permeability than the other two compounds; sorption and desorption on polymer-ceramic materials [4]: high sorption levels on polymer-ceramic materials, followed by extensive desorption
Cc1ccnc(NC(P(=O)(O)O)P(=O)(O)O)c1 [BP3, (4-methyl-2-pyridinyl)aminomethylene-1,1-bisphosphonic acid]			significant decrease			
Cc1cc(C)nc(NC(P(=O)(O)O)P(=O)(O)O)c1 [BP5, (4,6-dimethyl-2-pyridinyl)amino-methylene-1,1-bisphosphonic acid]	lower affinity		significant decrease			
Cc1ccc(NC(P(=O)(O)O)P(=O)(O)O)nc1 [BP4, (5-methyl-2-pyridinyl)aminomethylene-1,1-bisphosphonic acid]		89.3 ± 3.5%		62.7 ± 8.4%	approximately 154.0%	drug concentration in the acceptor plate relative to RSD [2]: over twice as high as RSD; PAMPA permeability, comparison in words [2]: higher permeability than the other two compounds
O=P(O)(O)C(Cl)(Cl)P(=O)(O)O [clodronate]						urinary excretion 24 h after the first dose [7]: 73%
O=P(O)(O)C(O)(Cn1ccnc1)P(=O)(O)O [Zoledronate, zoledronic acid]						permeability Pe [8]: Not detected; apparent permeability coefficient Papp (Caco-2 cell monolayer): 2.72 ± 0.868 (× 10^−6) cm s^−1; urinary excretion 24 h after the first dose [7]: 38%
O=P(O)(O)C(Nc1ccccn1)P(=O)(O)O [BP1, 2-pyridinylaminomethylene-1,1-bisphosphonic acid]	slightly higher affinity for HA than RSD		significant decrease		approximately 154.0%	sorption and desorption on polymer-ceramic materials [4]: high sorption levels on polymer-ceramic materials, followed by extensive desorption
O=P(O)(O)C(Nc1nc2ccccc2s1)P(=O)(O)O [BP12, N-(1,3-benzothiazol-2-yl)amino-methylene-1,1-bisphosphonic acid]	lower affinity for HA compared to RSD and BP1					sorption and desorption on polymer-ceramic materials [4]: high sorption levels on polymer-ceramic materials, followed by extensive desorption
O=P(O)(O)C(Nc1ccc(I)cn1)P(=O)(O)O [BP6, (5-iodo-2-pyridinyl)amino-methylene-1,1-bisphosphonic acid]	slightly higher affinity for HA than RSD					
O=P(O)(O)C(O)(Cc1cccnc1)P(=O)(O)O [RSD, Risedronate]						sorption on HA ([1]; 10 mL SBF): approximately 50%; growth of L. paracasei (OD600 growth curve), in words [9]: initial fast cell growth was followed by a rapid decrease in cell density; bioavailability [10]: 0.62%; urinary excretion 24 h after the first dose [7]: 65%
